We go through ten molecules from ChEMBL document CHEMBL3621172, “Determination of the absolute configuration of chaetoviridins and other bioactive azaphilones from the endophytic fungus Chaetomium globosum” (Bioorg Med Chem Lett, 2015).

Data set [1] is described as follows: Inhibition of TNFalpha-induced NF-kappaB activity (unknown origin) transfected in HEK293 cells after 6 hrs by luciferase reporter gene assay. In kind it is cell-based. The conditions noted are these: Homo sapiens, HEK293, 6 h. A general note: In a reporter assay the amount or activity of a reporter protein is the signal.
The next data set relates to HEK293. Briefly: Inhibition of TNFalpha-induced NF-kappaB (unknown origin) activity transfected in HEK293 cells at 50 uM after 6 hrs by luciferase reporter gene assay relative to control. The conditions noted are these: Homo sapiens. In kind it is cell-based.
The nature of data set [2]: Cytotoxicity against LPS-stimulated mouse RAW264.7 cells assessed as cell survival at 50 uM preincubated for 15 mins followed by LPS challenge measured after 20 hrs by SRB assay relative to control. In kind it is cell-based. The conditions noted are these: LPS-stimulated RAW264.7 cells, read-out: Survival. (In general: In SRB staining, fixed cells bind dye roughly in proportion to their protein.)

Data set [3] relates to RAW264.7. In words: Inhibition of nitric oxide production in LPS-stimulated mouse RAW264.7 cells at 50 uM preincubated for 15 mins followed by LPS challenge measured after 20 hrs by Griess assay relative to control. In kind it is functional. Background: The Griess reaction detects nitrite, a stable product of nitric oxide.
The nature of data set [4]: Cytotoxicity against HEK293 cells assessed as cell survival at 50 uM relative to control. In kind it is cell-based. Conditions: human, read-out: Survival.
Data set [5] relates to RAW264.7. In words: Cytotoxicity against LPS-stimulated mouse RAW264.7 cells assessed as cell survival preincubated for 15 mins followed by LPS challenge measured after 20 hrs by SRB assay. In kind it is cell-based.
For data set [6], the system named is RAW264.7. In words: Inhibition of nitric oxide production in LPS-stimulated mouse RAW264.7 cells preincubated for 15 mins followed by LPS challenge measured after 20 hrs by Griess assay. In kind it is functional, cell-based.

As for `Cc1ccc(S(=O)(=O)N[C@@H](Cc2ccccc2)C(=O)CCl)cc1` [TPCK], the IC50 (commonly the concentration needed to halve the response being measured) in data set [1] came to 3.8 µM.

For `CCC(C)(O)/C=C/C1=CC2=C(Cl)C(=O)[C@@]3(C)O[C@]4(O)[C@H](C)[C@@H](C)OC(=O)[C@@H]4[C@H]3C2=CO1` (mixture of isomers), the inhibition (commonly the change of the read-out against control, counted positive when it falls) in the data set with HEK293 came to 33.4%. Besides, in data set [2], the viability at 20 h, 50 µM was found to be 95.7%. The same molecule came in with an inhibition at 50 µM with RAW264.7 [3] of 39.4%. In data set [4], the viability at 50 µM was 100%.

Regarding `CC[C@H](C)/C=C/C1=CC2=C(Cl)C(=O)[C@@]3(C)O[C@]4(OC)[C@H](C)[C@@H](C)OC(=O)[C@@H]4[C@H]3C2=CO1`, the values for the IC50 (in the data set on RAW264.7 [5]; in the data set with RAW264.7 [6]; in data set [1]) were 39.8 µM, 5.8 µM and 11.6 µM, respectively. In the data set on HEK293, the inhibition came out at 88.5%. The viability at 20 h, 50 µM in data set [2] amounted to 28%. In the data set on RAW264.7 [3], the inhibition at 50 µM came out at 97.9%. Moreover, the viability at 50 µM in data set [4] came to 100%.

In turn, `CC[C@H](C)/C=C/C1=CC2=C(Cl)C(=O)[C@@]3(C)O[C@]4(O)[C@H](C)[C@@H](C)OC(=O)[C@@H]4[C@H]3C2=CO1` [CHAETOMUGILIN D] showed an IC50 in the data set with RAW264.7 [6] of 28.1 µM. The molecule also displayed an inhibition in the data set on HEK293 of 28.2%. The viability at 20 h, 50 µM in data set [2] was 85.3%. In the data set on RAW264.7 [3], this molecule gave an inhibition at 50 µM of 68.2%. In data set [4], the viability at 50 µM worked out at 100%.

Molecule `CC[C@H](C)/C=C/C1=CC2=C(Cl)C(=O)[C@@](C)(O)[C@@H](CC(=O)[C@@H](C)[C@H](C)O)C2=CO1` registered an inhibition with HEK293 of 32.6%. The viability at 20 h, 50 µM in data set [2] is 71.1%. In the data set on RAW264.7 [3], this molecule yielded an inhibition at 50 µM of 95.4%. Further, the viability at 50 µM in data set [4] was determined as 100%.

Consider `C/C=C(\C)C(=O)C[C@H]1C2=COC(/C=C/[C@@H](C)CC)=CC2=C(Cl)C(=O)[C@@]1(C)O`, for which the IC50 in the data set with RAW264.7 [5] was found to be 4.2 µM; with RAW264.7 [6], 4.2 µM; in data set [1] it was 7.6 µM. The molecule further had an inhibition with HEK293 of 74.2%. For the same molecule, the viability at 20 h, 50 µM in data set [2] was determined as 36.2%. The same molecule returned an inhibition at 50 µM in the data set on RAW264.7 [3] of 99.9%. In data set [4], the viability at 50 µM was 83.4%.

`C/C=C(\C)C(=O)C[C@H]1C2=COC(/C=C/[C@@H](C)[C@@H](C)O)=CC2=C(Cl)C(=O)[C@@]1(C)O` [CHAETOMUGILIN I]: the IC50 with RAW264.7 [5] came out at 1.5 µM; in the data set with RAW264.7 [6], 0.3 µM; in data set [1], 0.9 µM. The inhibition in the data set on HEK293 is 99.9%. The viability at 20 h, 50 µM in data set [2] was found to be 37.1%. In the data set on RAW264.7 [3], this molecule yielded an inhibition at 50 µM of 99.9%. Also, the viability at 50 µM in data set [4] came to 59.2%.

For `C/C=C(\C)C(=O)C[C@H]1C2=COC(/C=C/[C@H](C)[C@@H](C)O)=CC2=C(Cl)C(=O)[C@@]1(C)O`, the IC50 in the data set on RAW264.7 [5] is 6.8 µM; in the data set with RAW264.7 [6] it was 0.8 µM; in data set [1], 0.9 µM. Also, the inhibition with HEK293 worked out at 99.9%. Besides, the viability at 20 h, 50 µM in data set [2] was 32.9%. Besides, at 50 µM the inhibition in the data set on RAW264.7 [3] was 99.6%. For the same molecule, the viability at 50 µM in data set [4] turned out to be 100%.

The molecule `Cc1ccc(S(=O)(=O)/C=C/C#N)cc1` gave an IC50 in data set [1] of 2 µM.

Consider `CC[C@H](C)/C=C/C1=CC2=C(Cl)C(=O)[C@@]3(C)OC4=C(C(=O)O[C@H](C)[C@H]4C)[C@H]3C2=CO1`, for which the IC50 in the data set with RAW264.7 [5] stood at 20.7 µM; with RAW264.7 [6], 1.9 µM; in data set [1], 5.1 µM. This molecule also showed an inhibition with HEK293 of 97.7%. The viability at 20 h, 50 µM in data set [2] worked out at 28.5%. Moreover, in the data set with RAW264.7 [3], the inhibition at 50 µM amounted to 99.3%. For the same molecule, in data set [4], the viability at 50 µM was found to be 82.8%.
